# Test results as given in patent US8975442B2, “Process for the preparation of and crystalline forms of optical enantiomers of modafinil” (Teva Sante, priority 2002, dated 2015).
# Legend:
# Format in all cases: physicochemical
# [1] = Solubility of modafinil acid in 2-methoxyethanol
# From the text: Solubility of the Racemic Mixture in 2-Methoxyethanol: […]
# [2] = Solubility of modafinil acid in ethanol
# From the text: Solubility of the Racemic Mixture in Ethanol:
# [3] = Solubility of modafinil acid in methanol
# From the text: Solubility of the Racemic Mixture in Methanol:
structure (smiles),measurement,setting,value
"O=C(O)C[S+]([O-])C(c1ccccc1)c1ccccc1 (racemic) [(±)-modafinil acid, (±)-benzhydrylsulphinylacetic acid]",Solubility by mass,[1]; 10.0 °C,7.4%
same,ratio α (ratio of solubilities s(±)/s(+)),[1]; 20 °C,2.53
same,Solubility by mass,[1]; 20.0 °C,8%
same,Solubility by mass,[1]; 30.0 °C,13.5%
same,Solubility by mass,[1]; 40.0 °C,16%
same,Solubility by mass,[2]; 10.0 °C,3.0%
same,ratio α (ratio of solubilities s(±)/s(+)),[2]; 20 °C,2.06
same,Solubility by mass,[2]; 20.0 °C,4.1%
same,Solubility by mass,[2]; 30.0 °C,5.96%
same,Solubility by mass,[3]; 10.0 °C,7.4%
same,ratio α (ratio of solubilities s(±)/s(+)),[3]; 20 °C,2.53
same,Solubility by mass,[3]; 20.0 °C,9.7%
same,Solubility by mass,[3]; 30.0 °C,13.9%
same,Solubility by mass,[3]; 40.0 °C,25.7%
"O=C(O)C[S+]([O-])C(c1ccccc1)c1ccccc1 (single isomer, unassigned; (+)) [(+)-antipode]",Solubility by mass,[1]; 20.0 °C,4%
same,Solubility by mass,[2]; 20.0 °C,1.99%
same,Solubility by mass,[3]; 20.0 °C,4.9%
